The nature of series [1]: Effect on human erythrocyte morphology assessed as transformation of erythrocytes to stomatocytes after 48 hrs by Giemsa staining. The format is ADME, cell-based.
Series [2] can be described thus: Toxicity in human erythrocyte assessed as lysis at 25 to 100 ug/mL after 48 hrs by Giemsa staining. It counts as cell-based.
Series [3] is described as follows: Effect on human erythrocyte morphology assessed as transformation of erythrocytes to spherostomatocytes at 25 to 100 ug/mL after 48 hrs by Giemsa staining. It counts as ADME, cell-based.
Series [4] can be described thus: Effect on human erythrocyte morphology assessed as transformation of erythrocytes to stomatocytes S2 type at 25 to 100 ug/mL after 48 hrs by Giemsa staining. The format is ADME, cell-based.
Series [5] in a line: Effect on human erythrocyte morphology assessed as transformation of erythrocytes to stomatocytes S1 type at 25 to 100 ug/mL after 48 hrs by Giemsa staining. It counts as ADME, cell-based.
Series [6] is described as follows: Effect on human erythrocyte morphology assessed as ghost cell formation at 50 to 100 ug/mL after 48 hrs by Giemsa staining. The format is ADME, cell-based.
Series [7] can be described thus: Effect on human erythrocyte morphology assessed as transformation of erythrocytes to stomatocytes S1 type at 12.5 ug/mL after 48 hrs by Giemsa staining. The format is ADME, cell-based.
Series [8] can be described thus: Effect on morphology of human erythrocytes assessed as occurrence of normal discocytes at 6.25 ug/mL after 48 hrs by Giemsa staining. It counts as ADME, cell-based. To be noted: erythrocyte.
Series [9] is described as follows: Effect on morphology of human erythrocytes assessed as transformation of erythrocytes to stomatocytes S1 type at 6.25 ug/mL after 48 hrs by Giemsa staining. It counts as ADME, cell-based. To be noted: erythrocyte.
The nature of series [10]: Toxicity in human erythrocytes assessed as transformation of erythrocytes to stomatocytes at 0.625 after 48 hrs by Giemsa staining. The format is cell-based. The settings on record: erythrocyte.
The next series has as its system Plasmodium falciparum. In words: Antiplasmodial activity against chloroquine-sensitive Plasmodium falciparum 3D7 after 48 hrs by [3H]phenylalanine uptake.
Series [11] in a line: Toxicity in human erythrocytes assessed as lysis at 12.5 ug/mL after 48 hrs by Giemsa staining. The format is cell-based. To be noted: erythrocyte.
The nature of series [12]: Effect on morphology of human erythrocytes assessed as transformation of erythrocytes to stomatocytes S2 type at 6.25 ug/mL after 48 hrs by Giemsa staining. It counts as ADME, cell-based. To be noted: erythrocyte.

Drawing on ChEMBL document CHEMBL1150150, “New dammarane and malabaricane triterpenes from Caloncoba echinata” (J Nat Prod, 2002), this text covers Activity and IC50 for three molecules.

Consider `C=C(CC[C@H](O)[C@@]1(C)CC[C@H](C(C)(C)O)O1)[C@H]1CC[C@H]2[C@@]1(C)CC[C@H]1C(C)(C)C(=O)CC[C@]21C`, for which the Activity entry in series [1], in series [2], in [3], in [4], in series [5] and in series [6] was “Toxic” in each case. Also, the Activity entry in series [7] is listed as “Toxic”; in series [8] it was “Non-toxic”; in series [9] it was “Toxic”; in [10], “Non-toxic”. The IC50 (as a rule, the point on the concentration scale where inhibition reaches its midpoint) with Plasmodium falciparum is under 12 µg/mL.

`C=C(CC[C@@H](O)[C@]1(C)CC[C@H](C(C)(C)O)O1)[C@H]1CC[C@H]2[C@@]1(C)CC[C@H]1C(C)(C)C(=O)CC[C@]21C`: the Activity entry in [1], in series [2], in series [3], in series [4], in series [5] and in series [6] was “Toxic” throughout. The Activity entry in [7] is “Toxic”; in series [8] it was “Non-toxic”; in series [9], “Toxic”; in series [10], “Non-toxic”. Moreover, in the series on Plasmodium falciparum, the half-maximal inhibitory concentration (IC50) is under 12 µg/mL.

Consider `CC(C)=CCC[C@@](C)(O)[C@H]1CC[C@]2(C)[C@@H]1C[C@@H](O)[C@@H]1[C@@]3(C)CCC(=O)C(C)(C)[C@@H]3CC[C@]12C`, for which the Activity result in series [1], in series [2], in series [3], in [4], in series [5] and in [6] was “Toxic” in each case. Further, the Activity entry in series [11] is “Non-toxic”; in [7], “Toxic”; in series [8], “Non-toxic”; in series [12], “Toxic”; in series [9], “Toxic”; in [10], “Non-toxic”. In the series on Plasmodium falciparum, the IC50 was under 12 µg/mL.
